Reference: paper PMC12590356, “Novel pyrrolo[2,1-a]isoquinoline aryl ketones attenuate carbon nanotube-induced acute lung injury through NF-κB pathway inhibition” (RSC Advances, 2025)
“Also recorded” adds a separate entry of the source.

Tests used:
[1] = CCK8 cell viability (cytotoxicity) assay; type: cell-based, murine; settings: mouse, RAW264.7 cells, means ± SD (n = 3)
Protocol: The toxic effect of synthesized compounds was evaluated on RAW264.7 cells utilizing a CCK8 assay kit.
RAW264.7 cells were seeded in 96-well plates and incubated with various compounds, each at a uniform concentration of 50 μM, for 24 h. Following this incubation, CCK8 was added to the 96-well plates and incubated at 37 °C for 1 h. The control group was cultivated solely in fresh medium. The absorbance at 450 nm was quantified using an enzyme marker.

[2] = system: LPS-induced NO production in RAW 264.7 cells; assay: LPS-induced NO production (Griess reagent); type: cell-based, murine; settings: Mus musculus, RAW264.7, LPS 500 ng/mL 24 h, Griess reagent, means ± SD (n = 3), read-out: IC50, inhibition of LPS-induced NO production
Protocol: Despite extensive research efforts focused on the treatment ALI, no specific drugs have been identified thus far. In the quest to discover innovative anti-inflammatory drugs for ALI treatment, we assessed the anti-inflammatory potential of pyrrolo[2,1-a]isoquinoline aryl ketones were evaluated through their capacity to suppress LPS-induced NO release in RAW264.7 cells.[21,28] Griess reagent was used to quantify the levels of LPS-induced NO release in RAW264.7 cells following treatment with the synthesized compounds.
The quantification of NO production in activated RAW264.7 cells was achieved by measuring the concentration of nitrite, which serves as a stable oxidative metabolite of NO, employing a previously established protocol.[37] RAW264.7 cells were cultured overnight in 48-well plates at a cellular density of 5 × 10^4 cells per milliliter. […] Briefly, Griess reagents I and II were mixed with 50 μL of the culture medium supernatant, and the resultant mixture was analyzed spectrophotometrically at a wavelength of 540 nm using an automated microplate reader. The NO inhibition rate was calculated using the following formula: NO inhibition rate = [(OD540 − compound OD540)/(OD540 − blank OD540)] × 100%.

[3] = system: SWCNT-induced ALI mice; assay: Lung histopathology (H&E) in SWCNT-induced ALI mice; type: in vivo, C57BL/6 mice; settings: 50 mg/kg once a day for 3 d
Protocol: To evaluate the histopathological impact of 3g and 3k on SWCNT-induced ALI, hematoxylin and eosin (H&E) staining was performed on murine lung tissues.
(§1) Based on the results of the previous in vitro experiments, 3g and 3k were chosen for animal experiments. 3g was dissolved in 5% DMSO and 3k was dissolved in 0.5% sodium carboxymethyl cellulose (CMC-Na). Male C57BL/6 mice were randomly divided into four groups of ten animals each: CON, single-walled carbon nanotubes (SWCNT) model, 3k (50 mg kg^−1) + SWCNT, 3g (50 mg kg^−1) + SWCNT. The SWCNT model group was administered a one-time tracheal drip of 50 μL of SWCNT suspension containing 40 μg of SWCNT (approximately 1.86 mg per kg body weight) per mouse to model ALI. A blank tracheal drip of PBS was administered to the negative control. 3k + SWCNT and 3g + SWCNT groups were administered 3k or 3g of 50 mg per kg body weight once a day for 3d. The animals in the CON group received the same volume of 0.5% CMC-Na. The 1st dose was administered 1 h before modeling to avoid excessive damage to mice. The control and model groups were injected intraperitoneally with a blank solvent. […]
Mouse lung tissues were isolated and stored in a 4% paraformaldehyde solution. […] Representative images of each sample were acquired (magnification ×200) and analyzed using the ImageJ software. […]

[4] = system: TNF-α; assay: TNF-α in BALF of ALI mice (ELISA); type: in vivo, C57BL/6 mice; settings: SWCNT-induced ALI mice, 50 mg per kg dose
Protocol: To confirm the in vivo inhibitory effects of 3g and 3k, we examined the levels of pro-inflammatory cytokines in bronchoalveolar lavage fluid (BALF) from ALI mice.
as §1
The collected bronchoalveolar lavage fluid (BALF) was centrifuged to obtain the supernatant. The concentrations of TNF-α and IL-6 in BALF were determined using ELISA. […]

With `O=C(c1ccc(F)cc1)c1ccc2c3ccccc3ccn12` [3g] as the compound, how does the viability at 24 h, 50 µM [1] read?
The viability at 24 h, 50 µM was 86.5 ± 1.2%.

And the IC50 [2]?
The IC50 was 6.91 ± 0.12 µM.

And the “Histopathological lung changes (H&E)” value ([3]; 50 mg/kg)?
Its value is “significantly ameliorated these histopathological features; also recorded: superior efficacy in mitigating structural damage and neutrophil infiltration compared to 3k”.

And the “TNF-α level in BALF” value [4]?
The value was “effectively suppressed the release of TNF-α”.

Which results are given for `Cc1ccccc1C(=O)c1ccc2c3ccccc3ccn12` [3k]?
viability at 24 h, 50 µM [1]: 98.8 ± 4.7%; IC50 [2]: 10.1 ± 2.09 µM; Histopathological lung changes (H&E) [3]: significantly ameliorated these histopathological features; TNF-α level in BALF [4]: effectively suppressed the release of TNF-α
